± gives the standard deviation of the averaged measurements.
Experiments:
DASATINIB = compound: Cc1nc(Nc2ncc(C(=O)Nc3c(C)cccc3Cl)s2)cc(N2CCN(CCO)CC2)n1 [DASATINIB]; experiment: surviving fraction relative to DMSO-only wells; higher = less growth inhibition; conditions: exposure time: 5 days
Method in brief: (§1)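 Inhibitors at 0.5, 1, 5, 10, 50, 100, 500 and 1000 nM were applied continuously for five days to tumour cell lines seeded in log phase at 250–500 cells per well in 384-well plates 24 hours earlier. Viability was measured by CellTiter-Glo luminescence and expressed as surviving fraction relative to the median of DMSO-only wells. Luminescence was taken after 10 minutes at room temperature.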

OLAPARIB = compound: O=C(c1cc(Cc2n[nH]c(=O)c3ccccc23)ccc1F)N1CCN(C(=O)C2CC2)CC1 [OLAPARIB]; experiment: as above; conditions: exposure time: 5 days
Method in brief: as §1

Test System | surviving fraction (DASATINIB; 0.5 nM) | surviving fraction (DASATINIB; 1 nM) | surviving fraction (DASATINIB; 5 nM) | surviving fraction (DASATINIB; 10 nM) | surviving fraction (DASATINIB; 50 nM) | surviving fraction (DASATINIB; 100 nM) | surviving fraction (DASATINIB; 500 nM) | surviving fraction (DASATINIB; 1000 nM) | surviving fraction (OLAPARIB; 0.5 nM) | surviving fraction (OLAPARIB; 1 nM) | surviving fraction (OLAPARIB; 5 nM) | surviving fraction (OLAPARIB; 10 nM) | surviving fraction (OLAPARIB; 50 nM) | surviving fraction (OLAPARIB; 100 nM) | surviving fraction (OLAPARIB; 500 nM) | surviving fraction (OLAPARIB; 1000 nM)
MHM BONE | 0.966 ± 0.032 | 0.933 ± 0.058 | 0.846 ± 0.065 | 0.815 ± 0.049 | 0.686 ± 0.011 | 0.635 ± 0.0097 | 0.525 ± 0.0055 | 0.488 ± 0.018 | 1.001 ± 0.0057 | 1.02 ± 0.014 | 1.04 ± 0.022 | 1.02 ± 0.021 | 1.1 ± 0.018 | 1.052 ± 0.0081 | 1.04 ± 0.018 | 1.02 ± 0.028
HOSMNG BONE | 0.979 ± 0.032 | 0.971 ± 0.05 | 0.868 ± 0.021 | 0.741 ± 0.027 | 0.603 ± 0.021 | 0.457 ± 0.016 | 0.36 ± 0.019 | 0.372 ± 0.0076 | 0.877 ± 0.088 | 0.991 ± 0.034 | 0.964 ± 0.043 | 0.933 ± 0.049 | 1.02 ± 0.056 | 1.05 ± 0.03 | 1.06 ± 0.021 | 0.925 ± 0.14
C33A CERVIX | 0.869 ± 0.078 | 0.772 ± 0.044 | 0.521 ± 0.034 | 0.419 ± 0.008 | 0.219 ± 0.026 | 0.182 ± 0.0036 | 0.157 ± 0.0025 | 0.172 ± 0.0091 | 1.04 ± 0.098 | 1.04 ± 0.02 | 1.07 ± 0.049 | 1.03 ± 0.017 | 1.05 ± 0.098 | 0.998 ± 0.14 | 0.895 ± 0.068 | 0.841 ± 0.11
BT549 BREAST | 0.968 ± 0.16 | 0.937 ± 0.12 | 0.774 ± 0.12 | 0.669 ± 0.056 | 0.395 ± 0.037 | 0.236 ± 0.018 | 0.113 ± 0.012 | 0.114 ± 0.037 | 1.03 ± 0.096 | 1.01 ± 0.064 | 0.941 ± 0.0053 | 0.9883 ± 0.0074 | 0.686 ± 0.041 | 0.719 ± 0.062 | 0.718 ± 0.033 | 0.598 ± 0.048
MDAMB231 BREAST | 0.803 ± 0.011 | 0.794 ± 0.033 | 0.653 ± 0.022 | 0.571 ± 0.02 | 0.25 ± 0.0064 | 0.171 ± 0.0089 | 0.1411 ± 0.0013 | 0.153 ± 0.0031 | 0.961 ± 0.02 | 0.98 ± 0.031 | 0.974 ± 0.0099 | 0.97 ± 0.029 | 0.929 ± 0.017 | 0.957 ± 0.013 | 0.899 ± 0.015 | 0.807 ± 0.016
SG27 HEADNECK | 0.939 ± 0.12 | 1.01 ± 0.035 | 0.889 ± 0.15 | 0.736 ± 0.013 | 0.531 ± 0.0053 | 0.42 ± 0.038 | 0.35 ± 0.059 | 0.369 ± 0.064 | 1 ± 0.049 | 1.05 ± 0.14 | 0.969 ± 0.093 | 0.991 ± 0.1 | 0.916 ± 0.074 | 0.995 ± 0.092 | 0.981 ± 0.22 | 1.02 ± 0.11
SYO1 SYNOVIAL | 0.777 ± 0.024 | 0.758 ± 0.041 | 0.651 ± 0.03 | 0.566 ± 0.07 | 0.415 ± 0.02 | 0.383 ± 0.026 | 0.351 ± 0.011 | 0.34 ± 0.017 | 0.992 ± 0.055 | 0.95 ± 0.053 | 0.924 ± 0.045 | 0.881 ± 0.06 | 0.724 ± 0.025 | 0.6731 ± 0.0055 | 0.564 ± 0.044 | 0.429 ± 0.027
HUO3N1 BONE | 0.8227 ± 0.0049 | 0.747 ± 0.029 | 0.568 ± 0.083 | 0.457 ± 0.032 | 0.331 ± 0.0068 | 0.2553 ± 0.0021 | 0.232 ± 0.013 | 0.215 ± 0.0027 | 1.008 ± 0.0076 | 1.01 ± 0.024 | 1.06 ± 0.029 | 1.02 ± 0.031 | 1.03 ± 0.045 | 0.922 ± 0.032 | 0.913 ± 0.014 | 0.834 ± 0.02
NCIH441 LUNG | 0.994 ± 0.053 | 1.01 ± 0.052 | 0.878 ± 0.085 | 0.921 ± 0.046 | 0.846 ± 0.058 | 0.557 ± 0.056 | 0.462 ± 0.073 | 0.341 ± 0.046 | 1.02 ± 0.14 | 1.11 ± 0.052 | 0.998 ± 0.034 | 1.06 ± 0.068 | 1.02 ± 0.042 | 0.98 ± 0.037 | 0.98 ± 0.064 | 1.01 ± 0.042
ASKA SYNOVIAL | 0.928 ± 0.024 | 0.904 ± 0.051 | 0.974 ± 0.061 | 0.936 ± 0.046 | 0.985 ± 0.085 | 0.94 ± 0.032 | 0.919 ± 0.019 | 0.905 ± 0.036 | 1.16 ± 0.13 | 1.13 ± 0.043 | 1.14 ± 0.096 | 1.06 ± 0.09 | 0.936 ± 0.051 | 0.921 ± 0.044 | 0.772 ± 0.056 | 0.655 ± 0.071
PCI30 HEADNECK | 0.916 ± 0.015 | 0.888 ± 0.076 | 0.966 ± 0.05 | 0.98 ± 0.028 | 0.747 ± 0.017 | 0.665 ± 0.036 | 0.528 ± 0.019 | 0.421 ± 0.05 | 0.973 ± 0.043 | 0.969 ± 0.12 | 1.03 ± 0.016 | 1.02 ± 0.095 | 0.98 ± 0.069 | 0.92 ± 0.052 | 0.856 ± 0.057 | 0.744 ± 0.05
T47D BREAST | 0.937 ± 0.032 | 0.903 ± 0.043 | 0.903 ± 0.057 | 0.937 ± 0.042 | 1 ± 0.035 | 0.975 ± 0.042 | 0.964 ± 0.048 | 0.982 ± 0.061 | 1.01 ± 0.04 | 1 ± 0.052 | 0.986 ± 0.011 | 0.982 ± 0.027 | 0.997 ± 0.061 | 0.9606 ± 0.0086 | 0.971 ± 0.05 | 0.864 ± 0.023
HCT15 LARGE INTESTINE | 0.827 ± 0.034 | 0.814 ± 0.04 | 0.789 ± 0.06 | 0.73 ± 0.094 | 0.702 ± 0.044 | 0.56 ± 0.034 | 0.363 ± 0.083 | 0.326 ± 0.046 | 1.09 ± 0.06 | 1.06 ± 0.022 | 1.01 ± 0.085 | 1.05 ± 0.065 | 0.998 ± 0.043 | 1.04 ± 0.018 | 0.999 ± 0.055 | 1.03 ± 0.034
HCC1954 BREAST | 0.362 ± 0.011 | 0.325 ± 0.035 | 0.282 ± 0.0039 | 0.351 ± 0.006 | 0.309 ± 0.022 | 0.173 ± 0.021 | 0.148 ± 0.0028 | 0.104 ± 0.019 | 0.84 ± 0.13 | 0.762 ± 0.033 | 1.1 ± 0.06 | 0.969 ± 0.038 | 0.916 ± 0.092 | 0.6867 ± 0.0046 | 0.719 ± 0.013 | 0.497 ± 0.0021
HSSYII SYNOVIAL | 0.781 ± 0.031 | 0.791 ± 0.034 | 0.765 ± 0.029 | 0.743 ± 0.022 | 0.634 ± 0.0095 | 0.531 ± 0.047 | 0.489 ± 0.056 | 0.501 ± 0.037 | 0.941 ± 0.039 | 0.949 ± 0.027 | 0.882 ± 0.076 | 0.86 ± 0.013 | 0.827 ± 0.022 | 0.769 ± 0.055 | 0.6097 ± 0.0048 | 0.484 ± 0.046
MFM223 BREAST | 0.778 ± 0.17 | 0.785 ± 0.2 | 0.767 ± 0.18 | 0.684 ± 0.05 | 0.834 ± 0.059 | 0.86 ± 0.1 | 0.788 ± 0.091 | 0.68 ± 0.06 | 1.13 ± 0.02 | 1.14 ± 0.1 | 1.13 ± 0.041 | 1.09 ± 0.085 | 0.87 ± 0.029 | 0.787 ± 0.037 | 0.748 ± 0.052 | 0.712 ± 0.025
MDAMB468 BREAST | 0.872 ± 0.069 | 0.881 ± 0.038 | 0.909 ± 0.028 | 0.836 ± 0.11 | 0.858 ± 0.099 | 0.718 ± 0.065 | 0.488 ± 0.055 | 0.481 ± 0.055 | 0.928 ± 0.045 | 0.907 ± 0.026 | 0.935 ± 0.025 | 0.942 ± 0.029 | 0.861 ± 0.031 | 0.849 ± 0.049 | 0.835 ± 0.04 | 0.595 ± 0.047
CHLA90 AUTONOMIC GANGLIA | 0.801 ± 0.031 | 0.804 ± 0.059 | 0.737 ± 0.054 | 0.712 ± 0.025 | 0.735 ± 0.11 | 0.656 ± 0.091 | 0.711 ± 0.044 | 0.728 ± 0.026 | 1.02 ± 0.065 | 1.07 ± 0.037 | 1.01 ± 0.035 | 0.993 ± 0.048 | 0.95 ± 0.052 | 1.01 ± 0.078 | 0.963 ± 0.061 | 0.966 ± 0.059
HCC78 LUNG | 0.662 ± 0.064 | 0.783 ± 0.025 | 0.849 ± 0.084 | 0.914 ± 0.068 | 0.569 ± 0.15 | 0.235 ± 0.019 | 0.175 ± 0.056 | 0.176 ± 0.045 | 0.948 ± 0.06 | 0.986 ± 0.2 | 1.03 ± 0.32 | 1.22 ± 0.46 | 1.12 ± 0.1 | 1.05 ± 0.12 | 0.987 ± 0.19 | 0.859 ± 0.068
HT1080 SOFT TISSUE | 0.975 ± 0.032 | 0.947 ± 0.043 | 0.918 ± 0.02 | 0.841 ± 0.046 | 0.61 ± 0.017 | 0.541 ± 0.017 | 0.428 ± 0.023 | 0.427 ± 0.01 | 1.02 ± 0.0063 | 0.977 ± 0.023 | 0.9903 ± 0.0038 | 0.965 ± 0.013 | 0.882 ± 0.037 | 0.819 ± 0.032 | 0.7243 ± 0.0055 | 0.608 ± 0.021
